Laboratory results taken from PubChem BioAssay (NCI).
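How tested: cells in 96-well plates exposed to compound for 48 hours at five concentrations. GI50: concentration for 50% inhibition of growth. The concentration for full growth arrest is given as TGI.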

Experiments:
Experiment in all cases: NCI tumour cell line growth inhibition, 48 h
SNB-19 CNS = system: SNB-19 CNS
CAKI-1 renal = system: CAKI-1 renal
SN12C renal = system: SN12C renal
TK-10 renal = system: TK-10 renal
MALME-3M melanoma = system: MALME-3M melanoma
BT-549 breast = system: BT-549 breast
UO-31 renal = system: UO-31 renal
U251 CNS = system: U251 CNS

Row | Compound | GI50 (SNB-19 CNS) | TGI (SNB-19 CNS) | GI50 (CAKI-1 renal) | TGI (CAKI-1 renal) | GI50 (SN12C renal) | TGI (SN12C renal) | GI50 (TK-10 renal) | TGI (TK-10 renal) | GI50 (MALME-3M melanoma) | TGI (MALME-3M melanoma) | GI50 (BT-549 breast) | TGI (BT-549 breast) | GI50 (UO-31 renal) | TGI (UO-31 renal) | GI50 (U251 CNS) | TGI (U251 CNS)
1 | Cc1cc([C@H](C)Nc2nccc(N3C(=O)OC[C@@H]3[C@H](C)F)n2)ncc1-c1ccnc(C(F)(F)F)c1 | 39 µM | > 100 µM | 27800 nM | > 100 µM | 44.5 µM | > 100 µM | 53 µM | > 100 µM | 24200 nM | > 100 µM | 18.1 µM | 82.6 µM | 6080 nM | > 100 µM | 39.5 µM | > 100 µM
2 | Cc1ccc2c(C(C[N+](=O)[O-])c3ccco3)c(-c3ccccc3)[nH]c2c1 (centres undefined) | 59 µM | > 100 µM | 5630 nM | > 100 µM | 47.8 µM | > 100 µM | 12.3 µM | > 100 µM | 21800 nM | > 100 µM | 48.8 µM | > 100 µM | 33100 nM | > 100 µM | 46.2 µM | > 100 µM
3 | COc1ccccc1-c1nccc(COc2ccccc2C[C@@H](Oc2ncnc3sc(-c4ccc(F)cc4)c(-c4ccc(OCCN5CCN(C)CC5)c(Cl)c4C)c23)C(=O)O)n1 | 2.05 µM | 4.58 µM | 2660 nM | 9.89 µM | 1.75 µM | 3.83 µM | 3.46 µM | 14.9 µM | 1630 nM | 3.37 µM | 1.03 µM | 2.59 µM | 6120 nM | 17.5 µM | 1.88 µM | 4.15 µM
4 | COc1ccc(-c2nn3ncccc3c2-c2ccnc(Nc3cccc(C(F)(F)F)c3)n2)cc1 | 12.5 µM | > 25 µM | 7000 nM | > 25 µM | 8.03 µM | > 25 µM | 8.49 µM | > 22.5 µM | 10200 nM | > 25 µM | 12.4 µM | > 25 µM | 4830 nM | > 22.9 µM | 11.6 µM | > 25 µM
5 | Cc1cc(Nc2cc(N3CCN(C)CC3)nc(C#Cc3ccccc3)n2)n[nH]1 | 5.59 µM | 19.5 µM | 945 nM | 8.71 µM | 2.4 µM | 14.2 µM | 0.897 µM | 6.79 µM | 2000 nM | 13.9 µM | 4.68 µM | 17.8 µM | 1070 nM | 7.28 µM | 3.52 µM | 16.9 µM
6 | Fc1ccc(-c2cc(-c3cn[nH]c3-c3ccccn3)ccn2)cc1 | > 25 µM | > 25 µM | > 25000 nM | > 25 µM | > 25 µM | > 25 µM | > 25 µM | > 25 µM | > 25000 nM | > 25 µM | > 25 µM | > 25 µM | > 25000 nM | > 25 µM | > 25 µM | > 25 µM
7 | CC[C@H](C)[C@H](NC(=O)N[C@@H](C)c1ccccc1)C(=O)N(C)[C@H](C[C@@H](OC(C)=O)c1nc(C(=O)N[C@@H](Cc2ccccc2)C[C@H](C)C(=O)OC)cs1)C(C)C | 28.6 µM | > 100 µM | 37200 nM | > 100 µM | 48.8 µM | > 100 µM | 52 µM | > 100 µM | > 100000 nM | > 100 µM | 21.4 µM | 74.9 µM | 25500 nM | > 100 µM | 33.1 µM | > 100 µM
8 | CCCCCCCCCCCCNC(=O)[C@H]1CSC(c2ccsc2)N1 (some centres undefined) | 0.952 µM | 1.83 µM | 898 nM | 1.6 µM | 0.911 µM | 1.64 µM | 0.897 µM | 1.63 µM | 1140 nM | 2.12 µM | 0.797 µM | 1.58 µM | 826 nM | 1.51 µM | 0.875 µM | 1.61 µM
9 | NC1(C(=O)O)CSSC1 | 3.59 µM | 84 µM | 6220 nM | 40.5 µM | 3 µM | 12.3 µM | 3.42 µM | 24.3 µM | 2770 nM | 7.12 µM | 4.87 µM | 40.2 µM | 3680 nM | 34.4 µM | 3.58 µM | 22.6 µM
10 | C#CCn1cc(C=C2C(=O)NC(=S)NC2=O)c2cc(Cl)ccc21 | 1.72 µM | 3.16 µM | 1840 nM | 4.06 µM | 2.05 µM | 4.49 µM | 2.36 µM | 5.95 µM | 1980 nM | 4.95 µM | 1.91 µM | 3.89 µM | 1700 nM | 3.44 µM | 1.87 µM | 3.9 µM
11 | Cc1ccc(S(=O)c2ccc([N+](=O)[O-])c3nonc23)cc1 (centres undefined) | 14.7 µM | 33.9 µM | 3120 nM | 11.3 µM | 15 µM | 31.3 µM | 2.53 µM | 5.51 µM | 2230 nM | 5.12 µM | 10.1 µM | 21.7 µM | 2400 nM | 9.54 µM | 16 µM | 35 µM
12 | CN1CCN(CCCOc2ccc3ncnc(Nc4ccc(Oc5cccc(F)c5)c(Cl)c4)c3c2)CC1 | 1.64 µM | 3.16 µM | 1520 nM | 3.1 µM | 1.39 µM | 2.74 µM | 1.05 µM | 2.32 µM | 1560 nM | 3.05 µM | 1.7 µM | 3.3 µM | 1110 nM | 2.3 µM | 1.56 µM | 3.29 µM
13 | CC(=O)c1c(Nc2ccc(F)c(F)c2F)[nH]c2c(F)cc(F)cc2c1=O | 0.354 µM | > 70.2 µM | 218 nM | 1.61 µM | 0.277 µM | 3.45 µM | 0.503 µM | 47.8 µM | 207 nM | 0.643 µM | 0.335 µM | 5.76 µM | 123 nM | 0.742 µM | 0.343 µM | 20.1 µM
14 | COc1ccc2c(c1)c(-c1cc(-c3cn(C)c4ccc(OC)cc34)[nH]n1)cn2C | > 100 µM | > 100 µM | > 100000 nM | > 100 µM | > 100 µM | > 100 µM | > 100 µM | > 100 µM | > 100000 nM | > 100 µM | > 100 µM | > 100 µM | > 100000 nM | > 100 µM | > 100 µM | > 100 µM
15 | COc1ccc(-c2conc2-c2ccccc2)cc1 | 0.647 µM | > 100 µM | 246 nM | > 100 µM | 1 µM | > 100 µM | 15.3 µM | > 100 µM | 4950 nM | > 80.1 µM | 0.94 µM | 12.8 µM | 640 nM | 40.9 µM | 0.468 µM | > 100 µM
16 | CCOC(=O)C(=Cc1c(-c2ccccc2)[nH]c2ccccc12)C(=O)OCC | 21.6 µM | > 64.3 µM | 8260 nM | > 49.8 µM | 5.04 µM | 55 µM | 13.5 µM | 56.9 µM | 8090 nM | 22.3 µM | 5.17 µM | 38.5 µM | 3920 nM | 17.1 µM | 4.91 µM | 35.6 µM
17 | COc1ccc2nc3cc(Cl)ccc3c(Nc3ccc(O)c(CN4CCCC4)c3)c2c1 | 2.99 µM | 13.9 µM | 2090 nM | 4.88 µM | 1.84 µM | 4.56 µM | 2.29 µM | 4.75 µM | 2410 nM | 4.29 µM | 14.5 µM | 28.1 µM | 1830 nM | 3.7 µM | 2.15 µM | 4.44 µM
18 | COc1ccc(-c2nc(/C=N/Nc3cc(C)nc4ccc(Br)cc34)c(C)o2)cc1 | 1.95 µM | 3.73 µM | 1620 nM | 2.98 µM | 1.93 µM | 3.62 µM | 1.97 µM | 3.45 µM | 1980 nM | 3.67 µM | 1.67 µM | 3.11 µM | 1520 nM | 2.89 µM | 1.86 µM | 3.39 µM
19 | Cc1ccc(-c2cc(C(Cl)Cl)on2)cc1 | > 100 µM | > 100 µM | 43800 nM | > 100 µM | > 100 µM | > 100 µM | 54.9 µM | > 100 µM | > 100000 nM | > 100 µM | > 100 µM | > 100 µM | 49500 nM | > 100 µM | 55.1 µM | > 100 µM
20 | O=C(O)C(Cc1c[nH]c2ccccc12)N1C(=O)c2ccccc2C1=O (centres undefined) | – | > 100 µM | – | > 100 µM | – | > 100 µM | – | > 100 µM | – | > 100 µM | – | > 100 µM | – | > 100 µM | – | > 100 µM
21 | CNc1ccc(N=Nc2cccc3ncccc23)cc1 | > 80.6 µM | > 100 µM | 6000 nM | > 100 µM | 36.5 µM | > 100 µM | > 100 µM | > 100 µM | > 58400 nM | > 100 µM | 24.4 µM | > 100 µM | 890 nM | > 100 µM | 31.5 µM | > 100 µM
22 | COc1ccc(-c2nn(-c3cccc(Cl)c3)cc2-c2cc(-c3cccs3)no2)cc1 | 6.09 µM | > 100 µM | 2050 nM | 6.02 µM | 3.48 µM | 18.7 µM | 5.21 µM | 43.8 µM | 2600 nM | 10.6 µM | 4.99 µM | 21.3 µM | 2560 nM | 11.8 µM | 3.61 µM | 15.4 µM
